Measured values from patent US9023405B2, “Pharmaceutical composition using stryphnodendron extracts for treating HPV infections” (priority 2010, dated 2015).

Legend:
[1] = test system: human papillomavirus (HPV) lesions; conditions: cited from earlier work; for rate of local relapses: direct application on moles
skin incisions = assay: healing tests (skin incisions); format: in vivo, albino rabbits of the New Zealand lineage; conditions: daily topical treatment of incisions
Description: Thirty-six healthy adult albino rabbits of the New Zealand lineage weighing between 1.250 and 1.700 Kg were used for the healing tests. The animals were shaved and housed in individual cages at room temperature, in 12-hour light-dark cycles, with PURINA animal food and water ad libitum. The rabbits were anesthetized with local administration of lidocaine hydrochloride and inhalation of sulfuric ether. Four incisions were made on the skin of each rabbit until the subcutaneous layer was reached. A distance of 3 cm was maintained between each incision. The animals were divided into three groups. The group A, control, received NaCl 0.9% solution during the 14 days of treatment period. Group B was treated with rifamycin and group C received the ethanolic extract of barbatiman barks, resuspended in water (0.1 g mL^−1). The incisions remained open, and the rabbits were treated from the first day of the incision until the 14th day after the incision was made. On the 7th day, pieces were removed from ⅓ of the rabbits and part of the liver for histological analysis, and the animals were then killed. On 14th day, the remaining rabbits were killed, and the pieces and part of the liver were removed for histological analysis. […]

## O=C(O)C(Cl)(Cl)Cl [trichloroacetic acid, trichloroacetic acids]
[1]
  rate of local relapses: around 30%

## O=C(O)C(Cl)Cl [dichloroacetic acid, dichloroacetic]
[1]
  rate of local relapses: around 30%

## CO[C@H]1/C=C/O[C@@]2(C)Oc3c(C)c(O)c4c(O)c(cc(O)c4c3C2=O)NC(=O)/C(C)=C\C=C\[C@H](C)[C@H](O)[C@@H](C)[C@@H](O)[C@@H](C)[C@H](OC(C)=O)[C@@H]1C [rifamycin]
Skin incisions
  purulent secretion: present purulent secretion

## CC(C)Cn1cnc2c(N)nc3ccccc3c21 [Imiquimod]
[1]; condyloma acuminata of external and perianal genitalia
  cure rate: 50-56%
[1]; in vivo
  patients with headache, myalgia, and flu-like symptoms: less than 5%
